Results from PMC7689923 (ACS Omega, 2020).
≈ marks a conversion by molar mass, not a printed value. Where “and” joins values, the source holds several entries; their conditions need not be identical. Equal entries are not always repeated.

Key:
KasA [1] = biological target: T1, KasA (Mycobacterium tuberculosis, UniProt P9WQD9); experiment: Thermal shift experiments using nanoDSF; assay type: binding
T1 sequence (P9WQD9 1-416): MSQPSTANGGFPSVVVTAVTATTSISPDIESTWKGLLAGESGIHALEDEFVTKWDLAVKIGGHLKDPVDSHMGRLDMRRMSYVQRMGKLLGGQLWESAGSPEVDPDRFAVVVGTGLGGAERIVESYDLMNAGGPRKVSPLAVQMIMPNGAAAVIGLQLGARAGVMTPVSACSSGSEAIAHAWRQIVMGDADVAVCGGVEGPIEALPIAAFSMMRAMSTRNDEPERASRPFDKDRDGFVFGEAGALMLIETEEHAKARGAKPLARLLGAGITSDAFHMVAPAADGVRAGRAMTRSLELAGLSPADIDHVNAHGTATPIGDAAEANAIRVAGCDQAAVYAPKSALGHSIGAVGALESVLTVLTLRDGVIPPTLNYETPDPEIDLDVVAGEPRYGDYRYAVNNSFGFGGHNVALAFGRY

KasA [2] = biological target: T1, KasA; experiment: biochemical; assay type: binding; settings: for KasA binding via MST (in words): at the concentrations tested
Mtb = settings: cited from earlier work
KasA [3] = biological target: T1, KasA; settings: binder of KasA; cited from earlier work

Structure (SMILES) | change in Tm (in words) (KasA [1]) | Kd (KasA [2]) | KasA binding via MST (in words) (KasA [2]) | minimum inhibitor concentration (MIC) (Mtb) | EC50 (KasA [3]) | MIC (Mtb; Mtb inhibitor)
CCCNC(=O)NS(=O)(=O)c1ccc(Cl)cc1 [Chlorpropamide] | did not show significant changes in Tm | 90.6 µM and > 90 µM | showed binding to KasA |  |  | 
CCCCS(=O)(=O)Nc1ccc2cnn(C)c2c1 [DG167] |  |  |  | 0.39 M | 0.131 ± 0.0182 µM | 
COC(=O)Nc1nc2cc(C(=O)c3ccc(F)cc3)ccc2[nH]1 [Flubendazole, flubendazole] | did not show significant changes in Tm | 38.5 µM and 30 to 40 µM | showed binding to KasA |  |  | 
CC[C@H](C)C(=O)O[C@H]1C[C@@H](C)C=C2C=C[C@H](C)[C@H](CC[C@@H]3C[C@@H](O)CC(=O)O3)[C@H]21 [Lovastatin, lovastatin] | did not show significant changes in Tm | 224 µM and > 90 µM | showed binding to KasA |  |  | 
CCCc1nn(C)c2c(=O)[nH]c(-c3cc(S(=O)(=O)N4CCN(C)CC4)ccc3OCC)nc12 [Sildenafil, sildenafil] |  | 32.5 µM and 30 to 40 µM |  |  |  | 
Oc1cc(Cl)ccc1Oc1ccc(Cl)cc1Cl [Triclosan, triclosan] |  |  |  |  |  | 12.5 µM (≈ 3.62 µg/mL)
